Experimental findings from PubChem BioAssay AID2202554 (NIEHS Division of Translational Toxicology (DTT)) are described below.

The test system of the series is S. typhimurium/E. coli reverse mutation, colony counts. The experiment in a line: Bacterial reverse mutation test (aka Ames test) summary data.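 Further: His-minus Salmonella and trp-minus E. coli WP2 uvrA pKM101 with or without liver S9.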 From the text: The Ames test uses bacteria cultures to determine whether a substance causes mutations. Because there is a significant overlap between substances that are mutagens and those that are carcinogens, a quick and inexpensive mutagenicity test is useful as an initial screening for possible carcinogens.
The Ames test relies on specific strains of S. typhimurium, namely: TA97, TA98, TA100, TA102, TA104, TA1535, TA1537, and TA1538. In addition to the S. typhimurium strains, the test may also use the E. coli strain WP2 uvrA pKM101.
Each of the bacterial strains has a mutation that prevents it from making an amino acid (a protein building block) required for normal cell growth. The S. typhimurium strains are unable to manufacture histidine; the E. coli strain cannot manufacture tryptophan. The tester strains will not be able to grow without amino acid supplementation, unless the mutated gene is changed back to the correct DNA sequence (reversion mutation). Being exposed to a mutagenic chemical increases the chance that the mutant gene will be restored to the correct sequence, which allows the bacteria to grow and form colonies. Each substance under study is tested in a variety of bacterial strains with different types of altered DNA sequences in order to provide a comprehensive assessment of the mutagenic potential of the substance.
Some non-mutagenic substances are converted to mutagenic substances when metabolized by the liver; in contrast, some substances that are mutagenic in their natural state are converted to non-mutagens by the liver. All substances are tested in their natural state, as well as in the presence of liver enzymes that can produce this metabolic conversion of the test substance. Extracts of rat, hamster, or mouse liver enzymes (S9 mix) are used for this purpose.
D. Preparing the Cultures
Multiple sets of cultures are prepared using a range of doses and different amounts of liver enzymes for each bacterial strain. Each culture is prepared in a test tube containing a suspension of one bacterial strain and either an S9 mix or plain buffer solution. Then the test substance is added. Negative control cultures are established using the same ingredients, but without the test substance. Positive control cultures are established using known mutagens active in particular bacterial strains and metabolic conditions (for example, with or without S9). Once prepared, each culture is incubated for 20 minutes at 37° C. Agar is then added to the cultures, and the contents of each tube are poured onto the surface of a Petri dish that was prepared with standard bacterial culture medium. The plates are then incubated, usually for two days.
Depending on the substance to be tested, the exposure and incubation processes may be modified. These variations include:
- Elimination of the 20-minute incubation period in a test tube prior to plating (this method is referred to as the standard plate incorporation method)
- Enzymatic reduction of azo and diazo substances (this process occurs in the intestine or liver of animals) using a chemical called flavin mononucleotide (FMN) or intestinal bacterial preparations from rats
- Testing in sealed chambers such as desiccators for volatile and gaseous chemicals.
To validate the test, a trained investigator compares the number of colonies on the chemical-treated plates to the number of colonies on the negative control plates. If the substance under test is mutagenic, the chemical-treated plates will have a much greater number of colonies than the negative control plates.
- A positive response is a reproducible, dose-related increase in mutant colonies in any single strain, with or without the addition of S9 metabolic enzymes. While there is no minimum percentage of increase required for a result to be considered positive, a twofold increase in mutant colonies in a treated plate is usually considered to be a positive (mutagenic) response.
[…]
Background: The Ames test detects mutagens through reverse mutation in bacteria.

Records with an inconclusive call do not appear. The source made the active and inactive calls. How the calls were made is not given here.

For the compound `Cc1cccnc1`, the outcome is “inactive; negative”.

In the case of `CCCC(=O)c1cc(O)c(O)cc1O`, the outcome is “active; positive”.

As to `ClCCOCOCCCl`, the outcome was “active; positive”. The result for `Nc1ccc(O)c(C(=O)O)c1` reads “inactive; negative”. In the case of `Cc1ccc(C(=O)O)cc1`, the outcome is “inactive; negative”.

`c1cc2c3c(c1)ccc1cccc(c13)C2`: the outcome is “active; positive”. The result for `COCCO` reads “inactive; negative”. Consider `CC(=O)OCc1ccc2c(c1)OCO2`, for which the outcome was “inactive; negative”. The result for `COC(C)(C)C` reads “inactive; negative”; that for `O=C(O)C1C(C(=O)O)C2(Cl)C(Cl)=C(Cl)C1(Cl)C2(Cl)Cl` (configuration not stated), “inactive; negative”; that for `NC(=O)c1ccccc1`, “inactive; negative”. The result for `COc1cccc2sc(N)nc12` reads “active; positive”; that for `ClC=C(Cl)Cl`, “inactive; negative”; that for `Clc1cc(Cl)c(Cl)c(Cl)c1`, “inactive; negative”.

For `Oc1ccc(Cl)c(Cl)c1`, the outcome is “inactive; negative”.

With `COc1ccc2cc3[n+](cc2c1OC)CCc1cc2c(cc1-3)OCO2`, the outcome was “inactive; negative”. The result for `Cc1ccc2c(C)cccc2c1` reads “inactive; negative”. As to `O=C1OC2(c3ccc(O)cc3Oc3cc(O)ccc32)c2ccccc21`, the outcome was “inactive; negative”. The result for `CCCCCCCCCCCCCCCCC1CO1` (configuration not stated) reads “inactive; negative”. The result for `Nc1ncc([N+](=O)[O-])s1` reads “active; positive”; that for `O=[N+]([O-])c1c(O)c(Cl)cc(Cl)c1Cl`, “inactive; negative”. For the compound `C1CCCCC1`, the outcome is “inactive; negative”. `COc1cc(-c2ccc(N=Nc3cc(S(=O)(=O)O)c4ccccc4c3O)c(OC)c2)ccc1N=Nc1cc(S(=O)(=O)O)c2ccccc2c1N`: the outcome is “inactive; negative”. Then `N#C/C(N)=C(/N)C#N`, with “inactive; negative”; and `O=C1c2c(O)ccc(Nc3ccc(CCO)cc3)c2C(=O)c2c([N+](=O)[O-])ccc(O)c21`, with “active; positive”; and `c1ccc2[nH]c(-c3cscn3)nc2c1`, with “active; positive”. On to `COC(=O)CCCCC(=O)OC`, for which the outcome was “inactive; negative”. Regarding `C/C=C/C=C/C(=O)O`, the outcome is “inactive; negative”. Consider `BrCC(Br)C1CCC(Br)C(Br)C1` (configuration not stated), for which the outcome was “inactive; negative”. The result for `CC(=O)CC(N)=O` reads “active; positive”. For `[O]=[W](=[O])=[O]`, the outcome is “inactive; negative”.

For the compound `COC(=O)c1ccc(C)cc1`, the outcome is “inactive; negative”. Then `OC[P+](CO)(CO)CO`, with “inactive; negative”. Then `O=[N+]([O-])c1ccc(Cl)c(Cl)c1Cl`, with “active; positive”; and `CCCCCCC=O`, with “inactive; negative”; and `COc1cc(S(=O)(=O)O)c(C)cc1N=Nc1c(O)ccc2cc(S(=O)(=O)O)ccc12`, with “inactive; negative”. As for `O=C1c2c(O)ccc(O)c2C(=O)c2c(NCCO)ccc(NCCO)c21`, the outcome was “active; positive”.

With `CC[N+](=O)[O-]`, the outcome was “inactive; negative”.

With `CCN(CC)c1ccc(C(=C2C=CC(=[N+](CC)CC)C=C2)c2ccc(S(=O)(=O)O)cc2S(=O)(=O)[O-])cc1`, the outcome was “active; positive”. The result for `CCCCCCCC/C=C\CCCCCCCC(=O)OC` reads “inactive; negative”; that for `O=C1CCCCC1`, “inactive; negative”; that for `CCNC(=O)CC(C)=O`, “inactive; negative”. The result for `Nc1cc(Cl)c([N+](=O)[O-])cc1O` reads “active; positive”; that for `OCCOCCOCCO`, “active; positive”; that for `CCCNC(=O)NS(=O)(=O)c1ccc(Cl)cc1`, “inactive; negative”. The result for `CN` reads “inactive; negative”; that for `O=C(Nc1cccc2c(=O)c3c(ccc4c5cc(NC(=O)c6ccccc6)c6c(=O)c7ccccc7c(=O)c6c5[nH]c43)c(=O)c12)c1ccccc1`, “inactive; negative”; that for `OC[C@H]1O[C@@H](Oc2ccc(O)cc2)[C@H](O)[C@@H](O)[C@@H]1O`, “inactive; negative”. `O=C(O)CO`: the outcome was “inactive; negative”. The result for `CCCCOC(C)=O` reads “inactive; negative”. Then `C=CC(=O)OCCBr`, with “active; positive”; and `N#CCc1ccccc1`, with “inactive; negative”; and `CCn1cc(C(=O)O)c(=O)c2ccc(C)nc21`, with “active; weakly positive”. The result for `c1ccc2cc3c(cc2c1)-c1cccc2cccc-3c12` reads “active; positive”; that for `[O-][Br+2]([O-])O`, “active; positive”. With `Nc1ccc2cc(S(=O)(=O)O)c(N=Nc3ccc(-c4ccc(N=Nc5ccc(O)c(C(=O)O)c5)cc4)cc3)c(O)c2c1`, the outcome is “active; positive”. Then `Clc1cccc(Cl)c1Cl`, with “inactive; negative”; and `CCCCCCCCCC(=O)O`, with “inactive; negative”. On to `CCOc1cccc(N)c1`, for which the outcome was “active; weakly positive”. Then `CN(C)c1ccc(N)cc1`, with “active; positive”. For the compound `O=[N+]([O-])c1cccc(Cl)c1Cl`, the outcome is “active; weakly positive”. Then `NC(Cc1ccc(F)cc1)C(=O)O` (configuration not stated), with “inactive; negative”; and `C=CCCC`, with “inactive; negative”; and `COc1ccc(C(=O)c2ccccc2)c(O)c1`, with “active; weakly positive”. For the compound `Cc1ccc2c(ccc3ccccc32)c1`, the outcome was “active; positive”. `Cc1nnc(NS(=O)(=O)c2ccc(N)cc2)s1`: the outcome is “inactive; negative”. As to `Cc1ccc(N)cc1C`, the outcome is “active; positive”.

On to `CN[C@@H]1[C@H](O[C@H]2[C@H](O[C@H]3[C@H](O)[C@@H](O)[C@H](NC(=N)N)[C@@H](O)[C@@H]3N=C(N)N)O[C@@H](C)[C@]2(O)C=O)O[C@@H](CO)[C@H](O)[C@H]1O`, for which the outcome is “active; weakly positive”. As to `CCCCCCCCCCCCOS(=O)(=O)O`, the outcome is “inactive; negative”. `O=C(O)c1ccc([N+](=O)[O-])cc1`: the outcome was “active; positive”. The result for `C=CC(=O)OC` reads “inactive; negative”. For the compound `Nc1nc2ccccc2[nH]1`, the outcome is “inactive; negative”.

For `CCCc1cc(=O)[nH]c(=S)[nH]1`, the outcome is “inactive; negative”. Consider `O=C(OOC(=O)c1ccccc1)c1ccccc1`, for which the outcome was “inactive; negative”. In the case of `CCCCNC(=O)n1c(NC(=O)OC)nc2ccccc21`, the outcome was “inactive; negative”. Then `Nc1nc(=O)n([C@@H]2CS[C@H](CO)O2)cc1F`, with “inactive; negative”; and `CCc1ccc(C(c2ccc(CC)cc2)C(Cl)Cl)cc1`, with “active; positive”; and `CCOCCO`, with “inactive; negative”.

In the case of `CCCCCCOC(=O)c1ccccc1C(=O)OCCCCCC`, the outcome is “inactive; negative”.

Consider `CC(C)C(C)(C)C(C)(C)C(C)(C)S`, for which the outcome was “inactive; negative”. As for `Clc1ccc(C(Cl)(Cl)Cl)c(Cl)c1`, the outcome is “active; positive”. The result for `Cc1ccc(N)cc1Cl` reads “active; weakly positive”.

For the compound `CC1OC1C` (configuration not stated), the outcome is “active; positive”.

Regarding `CCCCCCCCCCCCCCCCN`, the outcome is “inactive; negative”. For the compound `COc1cc(Cc2cnc(N)nc2N)cc(OC)c1OC`, the outcome was “inactive; negative”. `ClCC1CO1` (configuration not stated): the outcome was “active; positive”. Take `CCOP(=O)(NC(C)C)Oc1ccc(SC)c(C)c1` (configuration not stated): the outcome is “inactive; negative”.
